In ChEMBL document CHEMBL1140757, “Studies toward the structural optimization of new brazilizone-related trypanocidal 1,3,4-thiadiazole-2-arylhydrazone derivatives” (Bioorg Med Chem, 2008):

Test system: Trypanosoma cruzi
Assay: Trypanocidal activity against Trypanosoma cruzi Y trypomastigotes assessed as parasite lysis
Type: functional, organism-based

With `COc1cc(/C=N/Nc2nnc(-c3ncc([N+](=O)[O-])n3C)s2)cc([N+](=O)[O-])c1O` as the compound, how does the IC50 read?
Its IC50 is 19 µM.

Which IC50 does the source give for `Cn1c([N+](=O)[O-])cnc1-c1nnc(N/N=C/c2cccc(Br)c2)s1` here?
Its IC50 is 728 µM.

With `Cn1c([N+](=O)[O-])cnc1-c1nnc(N/N=C/c2ccccc2[N+](=O)[O-])s1` as the compound, how does the IC50 read?
Its IC50 is 726 µM.

For `Cn1c([N+](=O)[O-])cnc1-c1nnc(N/N=C/c2ccccc2Br)s1`, which IC50 is on record?
The IC50 was 900 µM.

For `Cn1c([N+](=O)[O-])cnc1-c1nnc(N/N=C/c2cccc(Cl)c2Cl)s1`, which IC50 is on record?
Its IC50 is 1210 µM.

Which IC50 does the source give for `Cn1c([N+](=O)[O-])cnc1-c1nnc(N/N=C/c2cccc([N+](=O)[O-])c2)s1` here?
Its IC50 is 48.2 µM.

How did the IC50 turn out when `Cn1c([N+](=O)[O-])cnc1-c1nnc(N/N=C/c2cccc(O)c2)s1` was run?
Its IC50 is 73.9 µM.

With `Cn1c([N+](=O)[O-])cnc1-c1nnc(N/N=C/c2ccccc2Cl)s1` as the compound, how does the IC50 read?
Its IC50 is 140 µM.

For `Cn1c([N+](=O)[O-])cnc1-c1nnc(N/N=C/c2cccc(Cl)c2)s1`, which IC50 is on record?
The IC50 was 187 µM.

With `Cn1c([N+](=O)[O-])cnc1-c1nnc(N/N=C/c2cccc(O)c2O)s1` as the compound, how does the IC50 read?
The IC50 was 309 µM.

`Cn1c([N+](=O)[O-])cnc1-c1nnc(N/N=C/c2ccc(Cl)cc2Cl)s1` was tested. Which IC50 did it give?
Its IC50 is 794 µM.

`Cn1c([N+](=O)[O-])cnc1-c1nnc(N/N=C/c2cc(O)ccc2O)s1` was tested. Which IC50 did it give?
The IC50 was 140 µM.
